Assay results as given in the NIST ThermoML archive (doi:10.1016/j.jct.2005.07.011).
± gives the expanded uncertainty stated by the source.

Test: excess molar enthalpy (molar enthalpy of mixing); xn = mol fraction of the nth substance listed
Settings: Liquid

CCCCCO [pentan-1-ol] + COC(=O)OC
Settings	excess molar enthalpy [kcal/mol]
298.15 K, 1000 kPa, x2 = 0.05	0.133 ± 0.00502
298.15 K, 1000 kPa, x2 = 0.101	0.246 ± 0.00574
298.15 K, 1000 kPa, x2 = 0.151	0.334 ± 0.00669
298.15 K, 1000 kPa, x2 = 0.2	0.405 ± 0.00741
298.15 K, 1000 kPa, x2 = 0.25	0.459 ± 0.00813
298.15 K, 1000 kPa, x2 = 0.3	0.498 ± 0.0086
298.15 K, 1000 kPa, x2 = 0.35	0.524 ± 0.00884
298.15 K, 1000 kPa, x2 = 0.4	0.542 ± 0.00908
298.15 K, 1000 kPa, x2 = 0.45	0.552 ± 0.00908
298.15 K, 1000 kPa, x2 = 0.5	0.552 ± 0.00908
298.15 K, 1000 kPa, x2 = 0.55	0.541 ± 0.00884
298.15 K, 1000 kPa, x2 = 0.601	0.52 ± 0.0086
298.15 K, 1000 kPa, x2 = 0.651	0.493 ± 0.00813
298.15 K, 1000 kPa, x2 = 0.701	0.454 ± 0.00741
298.15 K, 1000 kPa, x2 = 0.75	0.403 ± 0.00669
298.15 K, 1000 kPa, x2 = 0.851	0.273 ± 0.00454
298.15 K, 1000 kPa, x2 = 0.899	0.196 ± 0.00335
298.15 K, 1000 kPa, x2 = 0.949	0.104 ± 0.00198
313.15 K, 100 kPa, x2 = 0.05	0.138 ± 0.00526
313.15 K, 100 kPa, x2 = 0.101	0.259 ± 0.00621
313.15 K, 100 kPa, x2 = 0.151	0.354 ± 0.00693
313.15 K, 100 kPa, x2 = 0.2	0.432 ± 0.00765
313.15 K, 100 kPa, x2 = 0.25	0.494 ± 0.00837
313.15 K, 100 kPa, x2 = 0.301	0.541 ± 0.00884
313.15 K, 100 kPa, x2 = 0.351	0.571 ± 0.00932
313.15 K, 100 kPa, x2 = 0.402	0.593 ± 0.00956
313.15 K, 100 kPa, x2 = 0.451	0.602 ± 0.0098
313.15 K, 100 kPa, x2 = 0.501	0.601 ± 0.0098
313.15 K, 100 kPa, x2 = 0.549	0.59 ± 0.00956
313.15 K, 100 kPa, x2 = 0.601	0.567 ± 0.00908
313.15 K, 100 kPa, x2 = 0.648	0.538 ± 0.00884
313.15 K, 100 kPa, x2 = 0.749	0.446 ± 0.00765
313.15 K, 100 kPa, x2 = 0.799	0.376 ± 0.00669
313.15 K, 100 kPa, x2 = 0.851	0.304 ± 0.00598
313.15 K, 100 kPa, x2 = 0.899	0.207 ± 0.0055
313.15 K, 100 kPa, x2 = 0.949	0.103 ± 0.00454
313.15 K, 1000 kPa, x2 = 0.05	0.134 ± 0.00526
313.15 K, 1000 kPa, x2 = 0.101	0.255 ± 0.00621
313.15 K, 1000 kPa, x2 = 0.151	0.352 ± 0.00669
313.15 K, 1000 kPa, x2 = 0.2	0.427 ± 0.00765
313.15 K, 1000 kPa, x2 = 0.25	0.49 ± 0.00837
313.15 K, 1000 kPa, x2 = 0.301	0.537 ± 0.00884
313.15 K, 1000 kPa, x2 = 0.351	0.569 ± 0.00932
313.15 K, 1000 kPa, x2 = 0.401	0.591 ± 0.00956
313.15 K, 1000 kPa, x2 = 0.45	0.601 ± 0.0098
313.15 K, 1000 kPa, x2 = 0.501	0.601 ± 0.0098
313.15 K, 1000 kPa, x2 = 0.549	0.59 ± 0.00956
313.15 K, 1000 kPa, x2 = 0.601	0.566 ± 0.00908
313.15 K, 1000 kPa, x2 = 0.652	0.536 ± 0.00884
313.15 K, 1000 kPa, x2 = 0.749	0.455 ± 0.00765
313.15 K, 1000 kPa, x2 = 0.799	0.387 ± 0.00693
313.15 K, 1000 kPa, x2 = 0.851	0.308 ± 0.00598
313.15 K, 1000 kPa, x2 = 0.899	0.225 ± 0.0055
313.15 K, 1000 kPa, x2 = 0.949	0.109 ± 0.00502
313.15 K, 10000 kPa, x2 = 0.05	0.136 ± 0.00526
313.15 K, 10000 kPa, x2 = 0.101	0.255 ± 0.00598
313.15 K, 10000 kPa, x2 = 0.151	0.352 ± 0.00669
313.15 K, 10000 kPa, x2 = 0.199	0.427 ± 0.00741
313.15 K, 10000 kPa, x2 = 0.249	0.488 ± 0.00813
313.15 K, 10000 kPa, x2 = 0.3	0.537 ± 0.00884
313.15 K, 10000 kPa, x2 = 0.349	0.569 ± 0.00932
313.15 K, 10000 kPa, x2 = 0.4	0.589 ± 0.00956
313.15 K, 10000 kPa, x2 = 0.449	0.599 ± 0.00956
313.15 K, 10000 kPa, x2 = 0.499	0.6 ± 0.0098
313.15 K, 10000 kPa, x2 = 0.551	0.588 ± 0.00956
313.15 K, 10000 kPa, x2 = 0.6	0.567 ± 0.00908
313.15 K, 10000 kPa, x2 = 0.65	0.535 ± 0.00884
313.15 K, 10000 kPa, x2 = 0.85	0.309 ± 0.00621
313.15 K, 10000 kPa, x2 = 0.899	0.222 ± 0.0055
313.15 K, 10000 kPa, x2 = 0.949	0.106 ± 0.00502
328.15 K, 1000 kPa, x2 = 0.05	0.137 ± 0.00526
328.15 K, 1000 kPa, x2 = 0.101	0.258 ± 0.00621
328.15 K, 1000 kPa, x2 = 0.151	0.356 ± 0.00693
328.15 K, 1000 kPa, x2 = 0.202	0.441 ± 0.00789
328.15 K, 1000 kPa, x2 = 0.252	0.506 ± 0.00884
328.15 K, 1000 kPa, x2 = 0.3	0.555 ± 0.00932
328.15 K, 1000 kPa, x2 = 0.35	0.592 ± 0.0098
328.15 K, 1000 kPa, x2 = 0.4	0.616 ± 0.0103
328.15 K, 1000 kPa, x2 = 0.45	0.629 ± 0.0103
328.15 K, 1000 kPa, x2 = 0.5	0.631 ± 0.0103
328.15 K, 1000 kPa, x2 = 0.55	0.622 ± 0.01
328.15 K, 1000 kPa, x2 = 0.601	0.6 ± 0.0098
328.15 K, 1000 kPa, x2 = 0.651	0.568 ± 0.00932
328.15 K, 1000 kPa, x2 = 0.701	0.525 ± 0.0086
328.15 K, 1000 kPa, x2 = 0.75	0.471 ± 0.00765
328.15 K, 1000 kPa, x2 = 0.851	0.327 ± 0.0055
328.15 K, 1000 kPa, x2 = 0.899	0.237 ± 0.00406
328.15 K, 1000 kPa, x2 = 0.949	0.122 ± 0.00227
